Several values for one entry are separate records, joined by “and”; a condition that tells them apart may be missing. Equal values may be shown once. Entries after “also recorded” stand apart in the source; their conditions may differ.
Tests used:
[1] = system: mouse cryopreserved hepatocytes; test: Metabolite profiling in mouse cryopreserved hepatocytes; format: in vitro ADME; details: for Area percentage in sample, 0 minute control / Area percentage in sample, 10 minute sample / Area percentage in sample, 20 minute sample / Absolute area in sample, 0 minute control / Absolute area in sample, 10 minute sample / Absolute area in sample, 20 minute sample: mouse hepatocyte samples; for Absolute area in sample, 0 minute control / Absolute area in sample, 10 minute sample / Absolute area in sample, 20 minute sample: XIC area
Description: (§1) Test compound (final substrate concentration 3 μM; final DMSO concentration 0.25%) were pre-incubated at 37° C., prior to the addition of a suspension of cryopreserved hepatocytes (final cell density 0.5×10^6 viable cells/mL in Williams E media supplemented with 2 mM L glutamine and 25 mM HEPES) to initiate the reaction. The reactions were stopped with acetonitrile containing internal standard at the appropriate time points ([…]). The termination plates were centrifuged at 2500 rpm at 4° C. for 30 minute to precipitate the protein. Following the hepatocyte stability assays, the samples were utilized for metabolite profiling. Hepatocyte stability in mouse and human was performed by using the incubation of tested compound (3 μM) with cryopreserved hepatocytes in suspension. Samples were removed at 6 time points over the course of a 60 min experiment and remaining test compound at each time point was analysed by using LC-MS/MS. Then, data was analysed and an intrinsic clearance (CLint) with standard error and half-life (t½) reported.
The samples from the hepatocyte stability assay were utilized for metabolite profiling. The 10 and 20 minute samples were compared to the 0 minute control sample to identified the metabolites formed. […] The areas and percentages reported for the parent and metabolites have been calculated using the XIC data; it has been assumed that each metabolite has the same ionization efficiency and that the sensitivity of the metabolite has not been affected by the biotransformation. […] For accuracy, a ppm error of less than 5 is desirable; when the response for a metabolite observed is low the ppm error maybe greater than 5. Where a metabolite has been referred to as a potential oxidation it can refer to a potential hydroxylation, epoxidation or oxide formation. Representative collision induced dissociation (CID) mass spectra were obtained for the metabolites found. Structural elucidation was then performed on the metabolite observed. The data are processed using Metabolynx XS (Waters Ltd). When the compound structure has been provided, the data is processed using mass defect filtering1 with the dealkylation tool2; if the structure is not provided then mass defect, filtering alone is used. […] The de-alkylation tool is used in addition to the mass defect filtering to take into account that when the molecule cleaves metabolically e.g. at an amine group, the mass defect may change. Following this initial processing, the data is compared to the control sample to determine whether a series of expected metabolites are observed. Finally, the same data set is processed, using 1 a.m.u. windows across the whole data acquisition range to look for non-predicted or unexpected metabolites. After the automated Metabolynx XS processing, the data are reviewed to confirm the validity of the detected metabolites and to ensure correct assignment of the metabolite observed. The elemental formula for the observed ion and compound is reported, along with the error in parts per million (ppm) for the measured ion compared to the theoretical mass of the ion. […] Therefore, structures are depicted in Markush format3 with the shaded area showing potential sites of modification. Hepatocyte stability, metabolic profiling and test compound analysis was performed by Cyprotex Discovery.

[2] = system: HT-29 cells; test: Immunofluorescence of E-cadherin, HT-29; format: cell-based, human
Description: For western blot analysis, cells were treated with the indicated inhibitors for 48 h and the whole cell extracts were obtained as described previously. Twenty micrograms of lysates were resolved on a 10% polyacrilamide SDS-PAGE followed by western blot analysis performed as previously described. For immunofluorescence assays cells were grown for 24 h on glass coverslips and treated with the indicated inhibitors for 48 h. Cells were fixed with 4% PFA for 15 min, permeabilized with 0.5% […] and incubated with E-cadherin antibody for 2 h. Coverslips were incubated with fluorescein-tagged secondary antibody (Dakopatts, Sweden) for […]. Finally coverslips were mounted with ProLong Gold antifade reagent (LifeTech, UK) and images were taken in epifluorescence microscope (Olympus) using 40× objective. Immunofluorescence of E-cadherin and DNA content analysis for FIGS. 22-23 were performed culturing of HT-29 human colorectal adenocarcinoma cell line in 384-well plates with densities of 3,000 cells per well in a total volume of 25 μl. After the completion of the staining, four images (2×2 array) of each well were taken with Vala Sciences' SIM™ with a 20× objective. Each image was acquired as a SIM Synthetic Focus with a z-stack range of 6 μm with 1 μm steps. The SIM Synthetic Focus feature will compile a “best focus” images from multiple images. One set of SIM Synthetic Focus images were taken in the DAPI channel for Hoechst 33342 staining, and another set of images were taken in the FITC channel for anti-E-cadherin-AlexaFluor488 labeling and analysed by Structured Illumination Microscopy (SIM™) platform to image the cells and Vala's CyteSeer® Cell-Cell Junction Algorithm to quantify the degree of expression and intracellular location of E-cadherin Vala's CyteSeer® Software can also measure relative DNA content by analyzing Total Integrated Intensity (TII) of the Nuclear Image (Ni) on the Nuclear Mask (Nm). This analysis was performed by Vala Science. Twenty compounds from were assayed in a “blinded” manner, at 2 test concentrations in 6 replicate wells for first assay and 3 replicate for second assay.

[3] = molecular target: T1, E3 ubiquitin-ligase Hakai (Mus musculus, UniProt Q9JIY2); test: In vivo Hakai-dependent ubiquitination assay in 293T cells; format: cell-based; details: vs DMSO
T1 construct: expressed in transfected cells; host or cells: HEK293T
T1 sequence (Q9JIY2 1-491): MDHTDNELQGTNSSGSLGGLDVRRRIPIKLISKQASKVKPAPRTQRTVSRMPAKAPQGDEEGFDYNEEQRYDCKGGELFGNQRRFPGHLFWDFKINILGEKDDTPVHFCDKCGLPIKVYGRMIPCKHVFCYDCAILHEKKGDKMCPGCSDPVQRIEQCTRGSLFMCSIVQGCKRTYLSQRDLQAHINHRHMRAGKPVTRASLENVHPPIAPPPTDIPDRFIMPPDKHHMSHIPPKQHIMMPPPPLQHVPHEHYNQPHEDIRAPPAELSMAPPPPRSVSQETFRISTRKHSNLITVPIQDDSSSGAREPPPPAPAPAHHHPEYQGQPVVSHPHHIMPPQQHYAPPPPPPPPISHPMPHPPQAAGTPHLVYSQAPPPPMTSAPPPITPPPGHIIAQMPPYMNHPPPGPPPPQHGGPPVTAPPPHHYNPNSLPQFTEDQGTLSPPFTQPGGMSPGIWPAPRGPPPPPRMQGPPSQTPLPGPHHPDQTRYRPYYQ
Description: For ubiquitination assays, 750.000 HEK293T cells were seeded in 6-well cell culture plates and after 24 h were transfected with 0.25 μg Src, 0.75 μg Flag-Hakai, and 0.5 μg HA-ubiquitin with Lipofectamin 2000 (Invitrogen, UK). Six hours after transfection cells were treated with indicated concentrations of Hakin-1, Hakin-5 or the rest of the compounds tested for 36 h. Whole cell extracts were obtained in lysis buffer (20 mM Tris-HCl pH 7.5, 150 mM NaCl and 1% Triton X-100) containing 10 μg/ml leupeptin, 10 μg/ml aprotinin and 1 mM phenylmethanesulphonyl fluoride (PMSF), supplemented with 10 mM N-ethylmaleimide. Cells were harvested and subjected to western blotting using anti-HA antibody to detect ubiquitination.

[4] = system: human cryopreserved hepatocytes; test: Hepatocyte stability, human; format: in vitro ADME; details: 3 μM
Description: as §1

Structure (SMILES)	found in hepatocyte stability assay samples (Mouse) [1]	Area percentage in sample, 0 minute control [1]	Area percentage in sample, 10 minute sample [1] [%]	Area percentage in sample, 20 minute sample [1] [%]	Absolute area in sample, 0 minute control [1]	Absolute area in sample, 10 minute sample [1]	Absolute area in sample, 20 minute sample [1]	E-cadherin levels at cell-cell contacts (immunofluorescence) ([2]; 48 h, vs DMSO)	Hakai protein levels ([3]; 293T cells transfected with Src, Flag-Hakai and HA-ubiquitin)	ubiquitination mediated by Hakai ([3]; 293T cells transfected with Src, Flag-Hakai and HA-ubiquitin, western blotting anti-HA)	compound remaining after 60 min [4]	polarity compared to parent (LCMS) ([1]; metabolite from incubating compound #1 with mouse hepatocytes)	E-cadherin expression at cell-cell contacts (immunofluorescence, Image J) ([2]; 48 hours, 5-100 μM, vs DMSO vehicle control)	Hakai-induced ubiquitination ([3]; HEK293T cells transfected with Hakai and ubiquitin)
O=C(O)c1ccc(-n2nnnc2SCC(=O)c2ccc([N+](=O)[O-])cc2)cc1 [Hakin-1, 4-(5-[2-(4-nitrophenyl)-2-oxoethyl]thiol-1H-tetrazol-1-yl)benzoic acid]	✓	97.2%	26.2	5.99	43574	14090	2877	significant increase E-cadherin levels at cell-cell contacts	no effect was seen in Hakai protein levels; also recorded: without affecting Hakai protein levels	strongly reduces the ubiquitination mediated by Hakai in a doses dependent-manner; also recorded: specific inhibitor for Hakai-mediated ubiquitination	77.3%			
O=C(O)c1ccc(-n2nnnc2SCC(O)c2ccc([N+](=O)[O-])cc2)cc1 (stereo not shown) [MKH1]	✓	2.72% and 2.76%	73.8	94	1235	39618	45169				95%-100%	more polar than the parent	significantly increase expression of E-cadherin	reduced ubiquitination at 20 μM and 100 μM

— US20230181535A1, “UBIQUITIN-LIGASE INHIBITORS FOR THE TREATMENT OF CANCER” (FUNDACIÓN PROFESOR NOVOA SANTOS, priority 2020, published 2023)
